# Assay results reported in US7390806B2, “Antibiotics containing borinic acid complexes and methods of use” (Anacor Pharmaceuticals, Inc., priority 2002, dated 2008).
# Where two headings read alike, the source gives them in different places.
# Columns and labels:
# [1] = system: Candida albicans ATCC 90028; assay: Antifungal in vitro MIC, Candida albicans; assay type: cell-based; settings: for MIC Candida albicans ATCC 90028: percent inhibition >= 80%
# [2] = system: Candida glabrata ATCC 15126; assay: Antifungal in vitro MIC, Candida glabrata; assay type: cell-based; settings: for MIC: Nakaseomyces glabratus
# [3] = system: Candida parapsilosis ATCC 22019; assay: Antifungal in vitro MIC, Candida parapsilosis; assay type: cell-based; settings: for MIC: Lodderomyces parapsilosis
# [4] = system: Microsporum canis ATCC 10214; assay: Antifungal in vitro MIC, Microsporum canis; assay type: cell-based; settings: for MIC: Microsporum canis
# [5] = system: Aspergillus fumigatus ATCC 204305; assay: Antifungal in vitro MIC, Aspergillus fumigatus; assay type: cell-based; settings: for MIC: Aspergillus fumigatus
# [6] = system: Trichophyton mentagrophytes ATCC 10270; assay: Antifungal in vitro MIC, Trichophyton mentagrophytes; assay type: cell-based; settings: for MIC: Trichophyton mentagrophytes
# S. aureus ATCC 29213 = assay: MIC determination, S. aureus ATCC 29213; assay type: cell-based, Staphylococcus aureus; settings: Table 1
# [7] = system: S. epidermidis ATCC 12228; assay: MIC determination, S. epidermidis ATCC 12228; assay type: cell-based, Staphylococcus epidermidis; settings: Table 1
# E. faecalis ATCC 29212 = assay: MIC determination, E. faecalis ATCC 29212; assay type: cell-based, Enterococcus faecalis; settings: Table 1
# E. faecium CT-26 = assay: MIC determination, E. faecium CT-26; assay type: cell-based, Enterococcus faecium; settings: Table 1
# [8] = system: M. catarrhalis ATCC 25238; assay: MIC determination, M. catarrhalis ATCC 25238; assay type: cell-based; settings: Table 1
# M. tuberculosis H37Rv = assay: Anti-mycobacterium in vitro activity, H37Rv; assay type: cell-based, Mycobacterium tuberculosis; settings: Sensitive strain
SMILES,MIC Candida albicans ATCC 90028 [1] [µg/mL],MIC Candida glabrata ATCC 15126 ([2]; percent inhibition >= 80%) [µg/mL],MIC Candida parapsilosis ATCC 22019 ([3]; percent inhibition >= 80%) [µg/mL],MIC Microsporum canis ATCC 10214 ([4]; percent inhibition >= 80%) [µg/mL],MIC Aspergillus fumigatus ATCC 204305 ([5]; percent inhibition >= 80%) [µg/mL],MIC Trichophyton mentagrophytes ATCC 10270 ([6]; percent inhibition >= 80%) [µg/mL],further results
"Cc1ccc(B(OCc2cn(C)cn2)c2ccc(C)c(Cl)c2)cc1Cl [Compound 130, Bis(3-Chloro-4-methylphenyl)borinic acid 1-methyl-4-(hydroxymethyl)-imidazole ester]",1,0.5,0.5,0.5,0.5,0.5,–
"Clc1ccc(B(OCc2cnc[nH]2)c2ccc(Cl)cc2)cc1 [Compound 126, Bis(4-Chlorophenyl)borinic acid 4-(hydroxymethyl)imidazole ester]",1,>32,32,16,>32,>32,–
"Oc1cccc2cccnc12 [Compound 53, 8-hydroxyquinoline]",–,–,–,–,–,–,"MIC S. aureus ATCC 29213 (S. aureus ATCC 29213): 2 micrograms per ml; MIC S. epidermidis ATCC 12228 [7]: 2 micrograms per ml; MIC E. faecalis ATCC 29212 (E. faecalis ATCC 29212): 64 micrograms per ml; MIC E. faecium CT-26 (E. faecium CT-26): 4 micrograms per ml; MIC M. catarrhalis ATCC 25238 [8]: 2 micrograms per ml; M. tuberculosis MIC H37Rv (M. tuberculosis H37Rv): 0.775 µg/mL; MIC ([1]; Candida albicans, ATCC90028, read-out: MIC Candida albicans ATCC 90028): 1 µg/mL; MIC ([2]; ATCC15126, read-out: MIC Candida glabrata ATCC 15126): > 32 µg/mL; MIC ([3]; ATCC22019, read-out: MIC Candida parapsilosis ATCC 22019): 32 µg/mL; MIC ([4]; ATCC10214, read-out: MIC Microsporum canis ATCC 10214): 16 µg/mL; MIC ([5]; ATCC204305, read-out: MIC Aspergillus fumigatus ATCC 204305): > 32 µg/mL; MIC ([6]; ATCC10270, read-out: MIC Trichophyton mentagrophytes ATCC 10270): > 32 µg/mL"
"C[C@@H]1[C@H](O)[C@@H](C)/C=C/C=C/C=C/C=C/C=C/C=C/C=C/[C@H](O[C@@H]2O[C@H](C)[C@@H](O)[C@H](N)[C@@H]2O)C[C@@H]2O[C@](O)(C[C@@H](O)C[C@@H](O)[C@H](O)CC[C@@H](O)C[C@@H](O)CC(=O)O[C@H]1C)C[C@H](O)[C@H]2C(=O)O [Amphotericin B, reference compound]",1,0.75,0.75,0.5,1,1,–
"CCn1ccnc1COB(c1ccc(C)c(Cl)c1)c1ccc(C)c(Cl)c1 [Compound 129, Bis(3-Chloro-4-methylphenyl)borinic acid 1-ethyl-2-(hydroxymethyl)-imidazole ester]",1,>32,32,16,>32,32,–
"Cc1ccc(B(OCc2nccn2C)c2ccc(C)c(Cl)c2)cc1Cl [Compound 128, Bis(3-Chloro-4-methylphenyl)borinic acid 1-methyl-2-(hydroxymethyl)-imidazole ester]",1,32,16,12,>32,16,–
"Cc1ccc(B(OCc2cn(Cc3ccccc3)cn2)c2ccc(C)c(Cl)c2)cc1Cl [Compound 127, Bis(3-Chloro-4-methylphenyl)borinic acid 1-benzyl-4-(hydroxymethyl)-imidazole ester]",1,>32,16,16,>32,32,–
"OC(Cn1cncn1)(Cn1cncn1)c1ccc(F)cc1F [Fluconazole, reference compound]",–,–,–,–,–,–,"MIC ([2]; ATCC15126, percent inhibition >= 80%, read-out: MIC Candida glabrata ATCC 15126): 3 µg/mL; MIC ([3]; ATCC22019, percent inhibition >= 80%, read-out: MIC Candida parapsilosis ATCC 22019): 2.5 µg/mL; MIC ([4]; ATCC10214, percent inhibition >= 80%, read-out: MIC Microsporum canis ATCC 10214): 16 µg/mL; MIC ([5]; ATCC204305, percent inhibition >= 80%, read-out: MIC Aspergillus fumigatus ATCC 204305): > 64 µg/mL; MIC ([6]; ATCC10270, percent inhibition >= 80%, read-out: MIC Trichophyton mentagrophytes ATCC 10270): 16 µg/mL"
"Cc1ccc(B(OCCc2ccccn2)c2ccc(C)c(Cl)c2)cc1Cl [Compound 131, Bis(3-Chloro-4-methylphenyl)borinic acid 2-pyridylethanol]",2,>32,>32,32,>32,32,–
